Tested on: mice suffering from NEC
Assay: Treatment of necrotizing enterocolitis (NEC) induced in mice by a 5 day protocol of formula (gavage) feeding and hypoxia
Assay type: in vivo, mice (C57BL/6)
Procedure: Ten day-old breastfed SERT knockout mice, TPH1 knockout mice and wildtype littermate mice (C57BL/6) were subjected to a 5 day protocol of formula (gavage) feeding and hypoxia. This protocol reproducibly induces NEC in mice. Weights of all groups were monitored daily and cytokines were analyzed in the distal ileum at day 5. This experiment was then repeated using two groups of mice that received 100 mg/kg or 200 mg/kg of (2S)-ethyl 2-amino-3-(4-(2-amino-6-(2,2,2-trifluoro-1-(3′-fluoro-[1,1′-biphenyl]-4-yl)ethoxy)pyrimidin-4-yl)phenyl)propanoate (LP-920540), and a control group that received vehicle.

Question: `CCOC(=O)[C@@H](N)Cc1ccc(-c2cc(OC(c3ccc(-c4cccc(F)c4)cc3)C(F)(F)F)nc(N)n2)cc1` (stereo partly drawn) [LP-920540, (2S)-ethyl 2-amino-3-(4-(2-amino-6-(2,2,2-trifluoro-1-(3′-fluoro-[1,1′-biphenyl]-4-yl)ethoxy)pyrimidin-4-yl)phenyl)propanoate] was tested. Which “weight loss versus vehicle-treated animals (FIG. 1)” value (100 or 200 mg/kg, five days of the experiment) did it give?
Answer: lost significantly less weight

Question: And the “mortality (FIG. 2)” value (100 or 200 mg/kg, vehicle treated animals 50%)?
Answer: 5-10%

Question: What about the “levels of transcripts encoding IL-6 versus vehicle-treated mice” value (distal ileum at day 5) of the same compound?
Answer: significantly less upregulated

Question: And the “levels of transcripts encoding IL-18 versus vehicle-treated mice” value (distal ileum at day 5)?
Answer: significantly less upregulated
